Values of other authors in patent US20060153842A1, “Immunosuppressive combination and its use in the treatment or prophylaxis or insulin-producing cell graft rejection” (priority 2001, published 2006).

Test system: islet allograft in male rats
Conditions: male rats hyperglycemic with streptozotocin; pre-administration the day before and the day of grafting

CCCCCCCCc1ccc(CCC(N)(CO)CO)cc1 [FTY720, 2-amino-2-[2-(4-octylphenyl)ethyl]propane-1,3-diol]
prolonged islet allograft survival: up to 20 days
